Data reported in US11077100B2, “Tetrahydroquinoline derivatives as P2X7 receptor antagonists” (RaQualia Pharma Inc., priority 2017, dated 2021).

Columns and labels:
rat P2X7 = rat P2X7 (Rattus norvegicus (Rat), UniProt Q64663); assay: Rat P2X7 functional assay (Ca2+ influx, Fluo-4, FDSS); type: cell-based; details: HEK293 cells stably expressing rat P2X7; BzATP final 10 microM; 7-point dose-response; read-out: Antagonistic activities with respect to the rat P2X7 receptor (IC50)
Procedure: Rat P2X7 Functional Assay
The functional activity of compounds was determined by measuring changes in intracellular calcium concentration using a Ca^2+-sensitive fluorescent dye, Fluo-4 (Molecular Probes). The changes in fluorescent signal were monitored by the cell imaging technology by Hamamatsu Photonics's Functional Drug Screening System (FDSS). Increases in intracellular Ca^2+ concentration were readily detected upon activation with BzATP.
HEK293 cells stably expressing rat P2X7 (GenBank accession number NM_019256) were grown in Corning CellBIND cell culture flasks, in a 5% CO2 humidified incubator to about 80% confluence. Media composition consisted of Dulbecco's Modified Eagle Medium (high glucose), 10% fetal bovine serum ([…]), 100 units/[…] Penicillin, 100 microg/mL Streptomycin and 250 microg/mL Geneticine.
1. […] Plate-out HEK293-rat P2X7 cells (40 microL medium containing 5,000 cells per well) into poly-D-lysine coated 384-well plates (BD Falcon) at 24 h prior to assay.
2. Incubate at 37° C. in 5% CO2.
3. Incubate the plate at 37° C. in 5% CO2 for 1 h.
5. Test compounds were prepared at 100× the test concentration in DMSO by serial dilution with Biomek-FX liquid handling instrument. 33× diluted compound solutions in assay buffer were prepared in intermediate compound plate with Biomek-NX liquid handling instrument. A further 3× dilution occurred in below steps 6 and 7.
6. Add 20 microL of 33× diluted compound solutions into each well and leave the plate for 10 min under the dark at room temperature.
7. Measure activity by FDSS as follows: • Set the assay plate on the stacker of FDSS. • Start the detection of fluorescence intensity at 540 nm by 480 nm exicitation. • After 30 seconds, add 20 microL of assay buffer containing 30 microM BzATP (final 10 microM).
IC50 values for compounds of the present invention were determined from 7-point dose-response studies. Curves were generated using the average of duplicate wells for each data point. Finally, the IC50 values are calculated with the best-fit dose curve determined by XLfit (ID Business Solutions Ltd.).

human P2X7 = human P2X7 (Homo sapiens (Human), UniProt Q99572); assay: Human P2X7 functional assay (Ca2+ influx, Fluo-4, FDSS); type: cell-based; details: antagonistic activity with respect to the human P2X7 receptor; BzATP final concentration 80 microM
Procedure, shortened: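 Ca2+ influx was triggered with BzATP (80 μM final) after a 10-min room-temperature compound preincubation and monitored with Fluo-4 (ex 480/em 540 nm) on FDSS. The cells were HEK293 stably carrying FLAG-tagged human P2X7. Duplicate-averaged 7-point dose-responses gave IC50s.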

Chain of rat P2X7 (Q64663 whole entry): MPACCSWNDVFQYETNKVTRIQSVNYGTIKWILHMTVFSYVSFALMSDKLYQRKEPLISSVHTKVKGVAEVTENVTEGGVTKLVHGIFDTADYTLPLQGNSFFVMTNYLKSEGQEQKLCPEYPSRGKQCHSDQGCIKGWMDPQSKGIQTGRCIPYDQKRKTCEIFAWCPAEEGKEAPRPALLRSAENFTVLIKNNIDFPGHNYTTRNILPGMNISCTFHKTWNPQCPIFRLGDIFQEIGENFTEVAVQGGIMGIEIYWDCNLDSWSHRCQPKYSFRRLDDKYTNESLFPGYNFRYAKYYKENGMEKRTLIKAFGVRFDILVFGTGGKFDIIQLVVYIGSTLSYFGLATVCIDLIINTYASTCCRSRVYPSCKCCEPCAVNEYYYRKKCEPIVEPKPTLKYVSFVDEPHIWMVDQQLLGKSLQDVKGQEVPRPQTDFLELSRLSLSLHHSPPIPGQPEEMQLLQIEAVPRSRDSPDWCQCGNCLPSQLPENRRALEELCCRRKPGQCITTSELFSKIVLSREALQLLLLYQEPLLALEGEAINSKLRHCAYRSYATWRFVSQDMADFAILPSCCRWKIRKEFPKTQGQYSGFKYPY
Chain of human P2X7 (Q99572 whole entry): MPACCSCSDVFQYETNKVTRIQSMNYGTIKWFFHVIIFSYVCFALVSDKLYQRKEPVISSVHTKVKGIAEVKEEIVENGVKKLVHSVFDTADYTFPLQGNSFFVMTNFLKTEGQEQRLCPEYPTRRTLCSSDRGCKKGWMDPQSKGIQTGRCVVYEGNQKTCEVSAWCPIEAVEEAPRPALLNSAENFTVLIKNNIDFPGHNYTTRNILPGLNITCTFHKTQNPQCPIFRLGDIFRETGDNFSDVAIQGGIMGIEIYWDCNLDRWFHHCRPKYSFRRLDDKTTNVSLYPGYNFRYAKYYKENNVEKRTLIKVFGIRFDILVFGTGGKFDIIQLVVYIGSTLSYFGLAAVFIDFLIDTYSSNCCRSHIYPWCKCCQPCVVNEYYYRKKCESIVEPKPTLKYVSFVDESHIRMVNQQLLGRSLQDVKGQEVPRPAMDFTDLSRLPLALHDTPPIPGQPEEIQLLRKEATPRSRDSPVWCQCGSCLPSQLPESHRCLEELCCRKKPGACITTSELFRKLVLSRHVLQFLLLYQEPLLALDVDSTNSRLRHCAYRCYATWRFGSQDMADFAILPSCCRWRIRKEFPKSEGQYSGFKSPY

SMILES	IC50 (rat P2X7)	IC50 (human P2X7)
Cc1cc(Cl)cc(Cl)c1CNC(=O)C1CCC(O)(CO)c2ncccc21 (centres unmarked) [Example 33, N-(2,4-dichloro-6-methylbenzyl)-8-hy-droxy-8-(hydroxymethyl)-5,6,7,8-tetra-hydroxuqinoline-5-carboxamide]	< 1000 nM	< 50 nM
Cc1cc(Cl)cc(Cl)c1CNC(=O)C1(F)CCC(O)(CO)c2ncccc21 (centres unmarked) [Example 34, N-(2,4-dichloro-6-methylbenzyl)-5-fluoro-8-hydroxy-8-(hydroxymethyl)-5,6,7,8-tetrahydroquinoline-5-carboxamide]	< 1000 nM	< 50 nM
O=C(NCc1cccc(Cl)c1Cl)C1(F)CCC(O)(CO)c2ncccc21 (centres unmarked) [Example 36, N-(2,3-dichlorobenzyl)-5-fluoro-8-hy-droxy-8-(hydroxymethyl)-5,6,7,8-tetra-hydroquinoline-5-carboxamide]	< 1000 nM	< 50 nM
O=C(NCc1ccc(Cl)cc1Cl)C1(F)CC(O)(CO)c2ncccc21 (centres unmarked) [Example 38, N-(2,4-dichlorobenzyl)-5-fluoro-7-hydroxy-7-(hydroxymethyl)-6,7-dihydro-5H-cyclopenta[b]pyridine-5-carboxamide]	< 1000 nM	101 to 300 nM
COCC1(O)CCC(F)(C(=O)NCc2c(C)cc(Cl)cc2Cl)c2cccnc21 (centres unmarked) [Example 39, N-(2,4-dichloro-6-methylbenzyl)-5-fluoro-8-hydroxy-8-(methoxymethyl)-5,6,7,8-tetrahydro-quinoline-5-carboxamide]	< 1000 nM	< 50 nM
COCC1(O)CCC(F)(C(=O)NCc2cccc(C(F)(F)F)c2Cl)c2cccnc21 (centres unmarked) [Example 40, N-(2-chloro-3-(tri-fluoromethyl)benzyl)-5-fluoro-8-hydroxy-8-(methoxy-methyl)-5,6,7,8-tetra-hydroquinoline-5-carboxamide]	< 1000 nM	< 50 nM
Cc1cc(Cl)cc(Cl)c1CNC(=O)C1CCC(O)(CN)c2ncccc21 (centres unmarked) [Example 43, 8-(aminomethyl)-N-(2,4-dichloro-6-meth-ylbenzyl)-8-hydroxy-5,6,7,8-tetrahydroquinoline-5-carboxamide]	< 1000 nM	< 50 nM
CNCC1(O)CCC(C(=O)NCc2c(C)cc(Cl)cc2Cl)c2cccnc21 (centres unmarked) [Example 44, N-(2,4-dichloro-6-methylbenzyl)-8-hydroxy-8-((methyl-amino)methyl)-5,6,7,8-tetrahydro-quinoline-5-carboxamide]	< 1000 nM	< 50 nM
CNCC1(O)CCC(F)(C(=O)NCc2c(C)cc(Cl)cc2Cl)c2cccnc21 (centres unmarked) [Example 46, N-(2,4-dichloro-6-methylbenzyl)-5-fluoro-8-hydroxy-8-((methyl-amino)methyl)-5,6,7,8-tetra-hydroquinoline-5-carboxamide]	< 1000 nM	< 50 nM

Further lines, results first:

IC50 (rat P2X7)	IC50 (human P2X7)	SMILES
< 1000 nM	< 50 nM	O=C(NCc1cccc(C(F)(F)F)c1Cl)C1(F)CCC(O)(CO)c2ncccc21 (centres unmarked) [Example 35, N-(2-chloro-3-(trifluoromethyl)benzyl)-5-fluoro-8-hydroxy-8-(hydroxymethyl)-5,6,7,8-tetrahydroquinoline-5-carboxamide]
< 1000 nM	< 50 nM	O=C(NCc1ccc(Cl)cc1Cl)C1(F)CCC(O)(CO)c2ncccc21 (centres unmarked) [Example 37, N-(2,4-dichlorobenzyl)-5-fluoro-8-hy-droxy-8-(hydroxymethyl)-5,6,7,8-tetra-hydroquinoline-5-carboxamide]
< 1000 nM	< 50 nM	Cc1cc(Cl)cc(Cl)c1CNC(=O)C1(F)CCC(O)(CN)c2ncccc21 (centres unmarked) [Example 45, 8-(aminomethyl)-N-(2,4-dichloro-6-methylbenzyl)-5-fluoro-8-hydroxy-5,6,7,8-tetrahydro-quinoline-5-carboxamide]
< 1000 nM	< 50 nM	Cc1cc(Cl)cc(Cl)c1CNC(=O)C1(F)CCC(O)(CN(C)C)c2ncccc21 (centres unmarked) [Example 47, N-(2,4-dichloro-6-meth-ylbenzyl)-8-((dimeth-ylamino)meth-yl)-5-fluoro-8-hydroxy-5,6,7,8-tetrahydroquinoline-5-carboxamide]
